Experimental data: patent US20160108004A1, “TREATMENT OR PREVENTION OF NEURODEGENERATIVE DISORDERS USING MENTHOL, LINALOOL AND/OR ICILIN” (NESTEC S.A., priority 2013, published 2016)

Columns and labels:
[1] = system: Lateral Amygdala glutamatergic neuron; assay: whole cell, current clamp recordings in a Lateral Amygdala glutamatergic neuron (mouse brain slice); format: cell-based; conditions: for inactivation of the sodium fast channels relative to control: square pulse of 2.5 s at high depolarization of membrane potential (approximately −30 mV), FIG. 2
Source text: (§1) A mouse brain slice was used to study the effects of Menthol, Linalool and Icilin. The amygdaloid complex is located within the medial temporal lobe in neocortex and amygdala. The lateral and basolateral nuclei of the amygdaloid complex receive sensory information from cortical and thalamic structures, process the information, and then transmit the information, either directly or through the basal nucleus, to the central nucleus. For experimental analysis of neural activity, synaptic responses from the basolateral complex can be evoked electrically using electrodes, and the action potentials can be measured.
A square pulse of 2.5 s was applied at high depolarization of membrane potential (approximately −30 mV).

[2] = system: Lateral Amygdala glutamatergic neuron; assay: whole cell, current clamp recordings with increasing concentration of gabazine (spontaneous action potential bursts); format: cell-based, mouse
Source text: as §1

Row | Compound | amount of current required to trigger an action potential [1] | threshold to trigger an action potential [1] | action potentials at higher stimulation levels [1] | inactivation of the sodium fast channels relative to control [1] | spontaneous bursts in the presence of gabazine ([2]; Menthol 250 μM applied extracellularly 10 minutes previous to and during exposure to increasing concentrations of gabazine, FIG. 5 compared to FIG. 3) | spontaneous action potential bursts ([2]; increasing concentrations of gabazine applied extracellularly, recordings of 5 min each, washout 10 min, FIG. 3)
1 | O=C1NC(c2cccc([N+](=O)[O-])c2)=CCN1c1ccccc1O [Icilin] | increase the amount of current required to trigger an action potential | increase the threshold to trigger an action potential | abort action potentials at higher stimulation levels | inactivation of the sodium fast channels happens sooner relative to control |  | 
2 | C=CC(C)(O)CCC=C(C)C (centres unmarked) [Linalool] | increase the amount of current required to trigger an action potential | increase the threshold to trigger an action potential | abort action potentials at higher stimulation levels | inactivation of the sodium fast channels happens sooner relative to control |  | 
3 | CC1CCC(C(C)C)C(O)C1 (centres unmarked) [Menthol] | increase the amount of current required to trigger an action potential | increase the threshold to trigger an action potential | abort action potentials at higher stimulation levels | inactivation of the sodium fast channels happens sooner relative to control | complete absence or a strongly decreased presence of spontaneous bursts | 
4 | COc1ccc(-c2ccc(=N)n(CCCC(=O)O)n2)cc1 [gabazine, reference compound] |  |  |  |  |  | neurons spontaneously present action potential bursts
